ChEMBL document CHEMBL1201862, “PubChem BioAssay data set” (2004)
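Five compound concentrations were applied to cells in 96-well plates for 48 hours; endpoints were derived by simple linear interpolation of the resulting dose-response curve. GI50 is the concentration that inhibits growth by half.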 Activity calls are given as the source filed them. Cut-off read from the data, not from the text of the source: active = GI50 up to about 1.1 µM and inactive = higher.

Assays:
Assay in all cases: inhibition of tumour cell growth, NCI panel, 48 h
[1] = tested on: Hs-578T
[2] = tested on: HCT-15
[3] = tested on: SF-268
[4] = tested on: SNB-75
[5] = tested on: HCT-116
[6] = tested on: OVCAR-4
[7] = tested on: SNB-78
[8] = tested on: OVCAR-3
[9] = tested on: A549
[10] = tested on: SF-295
[11] = tested on: KM12
[12] = tested on: OVCAR-5
[13] = tested on: SK-MEL-28
[14] = tested on: SNB-19
[15] = tested on: A498
[16] = tested on: NCI-H226
[17] = tested on: SK-MEL-2
[18] = tested on: SR
[19] = tested on: MOLT-4
[20] = tested on: CCRF-CEM

C=C(C)[C@H]1Cc2c(ccc3c2O[C@@H]2COc4cc(OC)c(OC)cc4[C@@H]2C3=O)O1 [ROTENONE]
GI50 [1]: 0.0785 µM (active) | GI50 [2]: 0.122 µM | GI50 [3]: 0.191 µM (active) | GI50 [4]: 0.152 µM (active) | GI50 [5]: 0.0618 µM (active) | GI50 [6]: 0.577 µM (active) | GI50 [7]: 0.456 µM (active) | GI50 [8]: 0.0566 µM (active) | GI50 [9]: 0.0785 µM (active) | GI50 [10]: 0.0399 µM (active) | GI50 [11]: 0.0897 µM (active) | GI50 [12]: 2.55 µM (inactive) | GI50 [13]: 0.162 µM (active) | GI50 [14]: 0.327 µM (active) | GI50 [15]: 0.335 µM (active) | GI50 [16]: 0.177 µM (active) | GI50 [17]: 0.171 µM (active) | GI50 [18]: 0.617 µM (active) | GI50 [19]: 0.693 µM (active) | GI50 [20]: 0.951 µM (active)

COc1ccccc1NC(=O)C1=C(C)NC(C)=C(C(=O)Nc2ccccc2OC)C1c1ccco1
GI50 [1]: 3.1 µM (inactive) | GI50 [2]: 4.76 µM | GI50 [3]: 10.3 µM (inactive) | GI50 [4]: 3.37 µM (inactive) | GI50 [5]: 4.36 µM (inactive) | GI50 [6]: 8.57 µM (inactive) | GI50 [7]: 9.1 µM (inactive) | GI50 [8]: 2.91 µM (inactive) | GI50 [9]: 5.18 µM (inactive) | GI50 [10]: 4.31 µM (inactive) | GI50 [11]: 3.98 µM (inactive) | GI50 [12]: 39.8 µM (inactive) | GI50 [13]: 19.7 µM (inactive) | GI50 [14]: 7.71 µM (inactive) | GI50 [15]: 4.3 µM (inactive) | GI50 [16]: 7.94 µM (inactive) | GI50 [17]: 3.64 µM (inactive) | GI50 [18]: 1.34 µM (inactive) | GI50 [19]: 3.87 µM (inactive) | GI50 [20]: 5.06 µM (inactive)

S=c1sc2c(S)nc(S)nc2n1-c1ccccc1
GI50 [2]: > 100 µM | GI50 [3]: > 100 µM (inactive) | GI50 [4]: 69.8 µM (inactive) | GI50 [5]: > 100 µM (inactive) | GI50 [6]: > 100 µM (inactive) | GI50 [7]: > 100 µM (inactive) | GI50 [8]: > 100 µM (inactive) | GI50 [9]: > 100 µM (inactive) | GI50 [10]: > 100 µM (inactive) | GI50 [11]: 54.5 µM (inactive) | GI50 [12]: > 100 µM (inactive) | GI50 [13]: > 100 µM (inactive) | GI50 [14]: > 100 µM (inactive) | GI50 [15]: 41 µM (inactive) | GI50 [16]: > 100 µM (inactive) | GI50 [17]: > 100 µM (inactive) | GI50 [18]: > 100 µM (inactive) | GI50 [19]: > 100 µM (inactive) | GI50 [20]: 80.2 µM (inactive)

Cc1c(/N=C\c2ccc(N(CCC#N)CCC#N)cc2)c(=O)n(-c2ccccc2)n1C
GI50 [1]: 38 µM (inactive) | GI50 [2]: > 100 µM | GI50 [3]: 64.6 µM (inactive) | GI50 [4]: 20.7 µM (inactive) | GI50 [5]: > 100 µM (inactive) | GI50 [6]: > 100 µM (inactive) | GI50 [7]: 51.6 µM (inactive) | GI50 [8]: > 90.6 µM (inactive) | GI50 [9]: 82.6 µM (inactive) | GI50 [10]: 25.7 µM (inactive) | GI50 [11]: > 100 µM (inactive) | GI50 [12]: > 100 µM (inactive) | GI50 [13]: > 100 µM (inactive) | GI50 [14]: 41.8 µM (inactive) | GI50 [15]: 69.2 µM (inactive) | GI50 [16]: > 100 µM (inactive) | GI50 [17]: > 96.6 µM (inactive) | GI50 [18]: > 100 µM (inactive) | GI50 [19]: > 100 µM (inactive) | GI50 [20]: > 100 µM (inactive)

CCCCOC(=O)N[C@H]1CCc2cc(OC)c(OC)c(OC)c2-c2ccc(SC)c(=O)cc21
GI50 [1]: < 0.01 µM (active) | GI50 [2]: < 0.01 µM | GI50 [3]: < 0.01 µM (active) | GI50 [4]: < 0.0109 µM (active) | GI50 [5]: < 0.01 µM (active) | GI50 [6]: 2.2 µM (inactive) | GI50 [7]: < 0.01 µM (active) | GI50 [8]: < 0.01 µM (active) | GI50 [9]: < 0.01 µM (active) | GI50 [10]: < 0.01 µM (active) | GI50 [11]: < 0.01 µM (active) | GI50 [12]: 0.147 µM (active) | GI50 [13]: 0.752 µM (active) | GI50 [14]: < 0.0153 µM (active) | GI50 [15]: < 0.01 µM (active) | GI50 [16]: 0.0931 µM (active) | GI50 [17]: < 0.01 µM (active) | GI50 [18]: < 0.0568 µM (active) | GI50 [19]: < 0.01 µM (active) | GI50 [20]: < 0.01 µM (active)

COc1cc2c(cc1OC)C(OC)N(C)c1c-2ccc2cc3c(cc12)OCO3 (stereo not drawn)
GI50 [2]: 40.7 µM | GI50 [3]: 0.094 µM (active) | GI50 [4]: 0.708 µM (active) | GI50 [5]: 1.66 µM (inactive) | GI50 [6]: 4.93 µM (inactive) | GI50 [7]: 2.67 µM (inactive) | GI50 [8]: 1.5 µM (inactive) | GI50 [9]: 0.201 µM (active) | GI50 [10]: 2.82 µM (inactive) | GI50 [11]: 0.839 µM (active) | GI50 [12]: 1.42 µM (inactive) | GI50 [13]: 4.28 µM (inactive) | GI50 [14]: 0.665 µM (active) | GI50 [15]: 0.458 µM (active) | GI50 [16]: 1.11 µM (active) | GI50 [17]: 1.98 µM (inactive) | GI50 [18]: 0.506 µM (active) | GI50 [19]: 0.611 µM (active) | GI50 [20]: 0.653 µM (active)
